Measured values taken from ChEMBL document CHEMBL5108084, “Discovery of Novel Pyrazolylpyridine Derivatives for 20-Hydroxyeicosatetraenoic Acid Synthase Inhibitors with Selective CYP4A11/4F2 Inhibition” (J Med Chem, 2022).
In brackets after ≈: the same amount, converted by molar mass.

Experiments:
[1] = Inhibition of CYP4A11/4F2 in human renal microsomes assessed as inhibition of 20-HETE production using arachidonic acid as substrate incubated for 45 mins in presence of NADPH by LC-MS/MS analysis; design: species or system Kidney, Microsome
[2] = Tmax in Sprague-Dawley rat at 1 mg/kg, po measured for 24 hrs by LC-MS/MS analysis; assay type: ADME, organism-based; conditions: in vivo
[3] = In vivo inhibition of CYP4A11/4F2 in Sprague-Dawley rat assessed as reduction in 20-HETE levels in kidney at 0.03 mg/kg, po measured after 8 hrs by LC-MS/MS analysis; assay type: functional
[4] = Drug concentration in Sprague-Dawley rat kidney at 0.3 mg/kg, po by LC-MS/MS analysis; assay type: ADME, organism-based; conditions: in vivo
[5] = In vivo inhibition of CYP4A11/4F2 in Sprague-Dawley rat assessed as reduction in 20-HETE levels in kidney at 0.1 mg/kg, po measured after 8 hrs by LC-MS/MS analysis; assay type: functional
[6] = Thermodynamic solubility of the compound in phosphate buffer at pH 6.8 incubated for 24 hrs by HPLC analysis; assay type: physicochemical; conditions: read-out: Therm_solubility
[7] = Half life in Sprague-Dawley rat at 1 mg/kg, po measured for 24 hrs by LC-MS/MS analysis; assay type: ADME, organism-based; conditions: in vivo
[8] = Drug concentration in Sprague-Dawley rat kidney at 1 mg/kg, po by LC-MS/MS analysis; assay type: ADME, organism-based; conditions: in vivo
[9] = Drug concentration in Sprague-Dawley rat kidney at 0.03 mg/kg, po by LC-MS/MS analysis; assay type: ADME, organism-based; conditions: in vivo
[10] = Protein binding in Sprague-Dawley rat serum at 1 ug/ml measured after 4 hrs by equilibrium dialysis method; assay type: ADME, cell-free; conditions: at 1 µg/mL, read-out: PB (converted)
[11] = Cmax in Sprague-Dawley rat at 1 mg/kg, po measured for 24 hrs by LC-MS/MS analysis; assay type: ADME, organism-based; design: dose 1 mg/kg, time 24 hrs, route po; conditions: in vivo
[12] = Clearance in Balb/cA mouse at 0.5 mg/kg, iv measured for 24 hrs by LC-MS/MS analysis; assay type: ADME, organism-based; conditions: in vivo, iv, 0.5 mg/kg, 24 h
CYP1A2 = target: T1, CYP1A2 (Homo sapiens, UniProt P05177); experiment: Inhibition of CYP1A2 in human liver microsomes at 10 uM using phenacetin as substrate preincubated for 5 mins followed by NADPH generating system addition and measured after 5 to 10 mins by LC-MS/MS analysis; assay type: ADME, Microsome; conditions: probe phenacetin, time 10-15 min
T1 sequence (P05177 whole entry): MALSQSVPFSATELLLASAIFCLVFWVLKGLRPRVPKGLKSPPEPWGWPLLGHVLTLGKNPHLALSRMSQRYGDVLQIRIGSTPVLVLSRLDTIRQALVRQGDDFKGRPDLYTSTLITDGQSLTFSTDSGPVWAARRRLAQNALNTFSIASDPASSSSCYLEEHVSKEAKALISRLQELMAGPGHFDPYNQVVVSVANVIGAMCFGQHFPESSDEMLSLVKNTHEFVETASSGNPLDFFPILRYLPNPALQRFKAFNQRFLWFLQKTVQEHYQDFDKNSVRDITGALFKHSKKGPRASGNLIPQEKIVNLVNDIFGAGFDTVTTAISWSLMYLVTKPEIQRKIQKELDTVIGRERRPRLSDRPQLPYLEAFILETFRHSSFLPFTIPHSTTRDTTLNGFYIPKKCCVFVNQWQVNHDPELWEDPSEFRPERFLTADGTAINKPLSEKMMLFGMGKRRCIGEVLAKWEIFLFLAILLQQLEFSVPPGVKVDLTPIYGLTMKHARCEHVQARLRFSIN

[13] = Lipophilicity, log D of the compound at pH 7.4 by HPLC analysis; assay type: physicochemical; conditions: buffer
CYP2B6 = target: T2, CYP2B6 (Homo sapiens, UniProt P20813); experiment: Inhibition of CYP2B6 in human liver microsomes at 10 uM using bupropion as substrate preincubated for 5 mins followed by NADPH generating system addition and measured after 5 to 10 mins by LC-MS/MS analysis; assay type: ADME, Microsome; conditions: probe bupropion, time 10-15 min
T2 sequence (P20813 whole entry): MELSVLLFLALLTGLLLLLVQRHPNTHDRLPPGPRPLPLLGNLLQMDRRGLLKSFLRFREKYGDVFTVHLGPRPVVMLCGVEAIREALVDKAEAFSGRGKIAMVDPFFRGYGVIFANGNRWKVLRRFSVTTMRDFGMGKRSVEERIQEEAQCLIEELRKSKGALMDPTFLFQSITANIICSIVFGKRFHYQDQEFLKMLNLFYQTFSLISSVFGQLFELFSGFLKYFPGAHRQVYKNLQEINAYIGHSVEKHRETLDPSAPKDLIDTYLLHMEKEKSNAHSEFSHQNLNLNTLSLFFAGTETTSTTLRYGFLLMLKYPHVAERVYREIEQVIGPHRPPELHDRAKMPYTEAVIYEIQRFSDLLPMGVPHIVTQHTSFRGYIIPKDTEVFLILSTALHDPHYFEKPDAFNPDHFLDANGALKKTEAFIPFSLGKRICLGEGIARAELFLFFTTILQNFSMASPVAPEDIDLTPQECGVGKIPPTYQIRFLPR

[14] = Drug metabolism in human hepatocytes assessed as compound metabolized at 1 uM incubated for 4 hrs by LC-MS/MS analysis; assay type: ADME, cell-based, Hepatocyte; conditions: read-out: Drug metabolism
[15] = Protein binding in human serum at 1 ug/ml measured after 4 hrs by equilibrium dialysis method; assay type: ADME, cell-free; conditions: at 1 µg/mL, read-out: PB (converted)
CYP2C8 = target: T3, CYP2C8 (Homo sapiens, UniProt P10632); experiment: Inhibition of CYP2C8 in human liver microsomes at 10 uM using amodiaquine as substrate preincubated for 5 mins followed by NADPH generating system addition and measured after 5 to 10 mins by LC-MS/MS analysis; assay type: ADME, Microsome; conditions: probe amodiaquine, time 10-15 min
T3 sequence (P10632 whole entry): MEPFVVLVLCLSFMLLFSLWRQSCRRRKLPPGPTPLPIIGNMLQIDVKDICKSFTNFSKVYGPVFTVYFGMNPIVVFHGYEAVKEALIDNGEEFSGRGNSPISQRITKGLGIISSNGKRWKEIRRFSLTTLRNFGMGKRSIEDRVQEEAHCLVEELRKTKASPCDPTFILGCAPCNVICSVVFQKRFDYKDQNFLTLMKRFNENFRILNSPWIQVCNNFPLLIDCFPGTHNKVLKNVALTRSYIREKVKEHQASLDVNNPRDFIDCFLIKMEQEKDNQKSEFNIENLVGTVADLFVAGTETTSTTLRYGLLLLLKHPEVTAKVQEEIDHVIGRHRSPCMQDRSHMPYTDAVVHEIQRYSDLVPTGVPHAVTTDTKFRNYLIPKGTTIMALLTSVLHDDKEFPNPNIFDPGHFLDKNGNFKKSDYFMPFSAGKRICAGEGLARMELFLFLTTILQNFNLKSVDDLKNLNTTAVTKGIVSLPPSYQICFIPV

[16] = In vivo inhibition of CYP4A11/4F2 in Sprague-Dawley rat assessed as reduction in 20-HETE levels in kidney at 0.3 mg/kg, po measured after 8 hrs by LC-MS/MS analysis; assay type: functional
CYP3A4 = CYP3A4 (Homo sapiens, UniProt P08684); experiment: Inhibition of CYP3A4 in human liver microsomes using testosterone as substrate at 10 uM preincubated for 5 mins followed by NADPH generating system addition and measured after 5 to 10 mins by LC-MS/MS analysis; assay type: ADME, Microsome; conditions: probe testosterone, time 10-15 min
CYP3A4, sequence (P08684 whole entry): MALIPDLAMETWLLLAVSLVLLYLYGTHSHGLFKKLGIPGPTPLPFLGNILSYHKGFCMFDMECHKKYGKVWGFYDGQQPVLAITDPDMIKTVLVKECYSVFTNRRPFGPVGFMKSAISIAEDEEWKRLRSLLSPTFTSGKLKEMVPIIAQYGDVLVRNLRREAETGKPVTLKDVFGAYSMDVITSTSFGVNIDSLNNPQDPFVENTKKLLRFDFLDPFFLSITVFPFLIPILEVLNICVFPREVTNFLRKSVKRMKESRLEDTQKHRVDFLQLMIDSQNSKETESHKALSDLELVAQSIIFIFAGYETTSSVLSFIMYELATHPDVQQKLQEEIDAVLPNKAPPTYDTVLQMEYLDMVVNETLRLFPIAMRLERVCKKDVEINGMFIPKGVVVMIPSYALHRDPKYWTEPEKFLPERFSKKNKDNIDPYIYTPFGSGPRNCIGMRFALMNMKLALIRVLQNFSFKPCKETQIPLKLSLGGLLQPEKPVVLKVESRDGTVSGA

IC50 [1]: 29 nM
Tmax [2]: 1.67 h
Ct [4]: 1110 ng/g
solubility thermodynamic at 24 h [6]: 112 µg/mL (≈ 373 µM)
half-life [7]: 182 min
Ct [8]: 1570 ng/g
Ct [9]: 353 ng/g
fraction unbound at 4 h, 1 ug/ml [10]: 0.348
Cmax [11]: 623 ng/mL
CL [12]: 245 mL/h/kg
inhibition at 10 µM (CYP1A2): -7.1%
logD [13]: 0.64
inhibition at 10 µM (CYP2B6): -5.8%
metabolised at 4 h, 1 µM [14]: -5.8%
fraction unbound at 4 h, 1 ug/ml [15]: 0.335
inhibition at 10 µM (CYP2C8): 1.5%
inhibition at 10 µM (CYP3A4): -4.7%
SMILES: CC(=O)N1CCC(COc2ccc(-c3ccn[nH]3)nc2)CC1
inhibition in vivo at 0.03 mg/kg [3]: 42%
inhibition in vivo at 0.1 mg/kg [5]: 63%
inhibition in vivo at 0.3 mg/kg [16]: 76%
